In ChEMBL document CHEMBL1156393, “Pibocin B, the first N-O-methylindole marine alkaloid, a metabolite from the Far-Eastern ascidian Eudistoma species” (2001):
Converted amounts (≈) assume the structure as drawn.

Test: Cytotoxicity against mouse EAC cells
Format: functional
Conditions: Ehrlich, read-out: ED50 (the source's name)

**Q.** Which EC50 does the source give for `COn1c(Br)c2c3c(cccc31)[C@H]1C[C@@H](C)CN(C)[C@@H]1C2` [PIBOCIN B] here?
**A.** The EC50 was 25 mg/L (≈ 71.6 µM).
